Assay results: ChEMBL document CHEMBL5727310, “Substituted morpholine derivatives having activity against pain” (2019)

Target: Sigma non-opioid intracellular receptor 1 (Homo sapiens, UniProt Q99720)
Assay: Receptor Radioligand Assay: To investigate binding properties of test compounds to human σ1 receptor, transfected HEK-293 membranes and [3H](+)-pentazocine (Perkin Elmer, NET-1056), as the radioligand, were used. The assay was carried out with 7 μg of membrane suspension, 5 nM of [3H](+)-pentazocine in either absence or presence of either buffer or 10 μM Haloperidol for total and non-specific binding, respectively. Binding buffer contained Tris-HCl 50 mM at pH 8. Plates were incubated at 37° C. for 120 minutes. After the incubation period, the reaction mix was then transferred to MultiScreen HTS, FC plates (Millipore), filtered and plates were washed 3 times with ice-cold 10 mM Tris-HCL (pH7.4). Filters were dried and counted at approximately 40% efficiency in a MicroBeta scintillation counter (Perkin-Elmer) using EcoScint liquid scintillation cocktail

Chain of Sigma non-opioid intracellular receptor 1 (Q99720 whole entry): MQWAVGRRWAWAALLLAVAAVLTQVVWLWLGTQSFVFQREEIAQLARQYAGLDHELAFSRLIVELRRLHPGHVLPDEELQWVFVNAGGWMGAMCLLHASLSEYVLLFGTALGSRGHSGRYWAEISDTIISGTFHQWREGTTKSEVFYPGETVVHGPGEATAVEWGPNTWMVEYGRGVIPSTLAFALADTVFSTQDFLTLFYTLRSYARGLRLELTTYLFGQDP

Ki: < 500 nM
SMILES: CCN1CC(C2CCN(CCC(C)C)CC2)OC2(CC2)C1 (stereo unspecified)
